In patent US10632106B2, “Methods of cancer treatment with 2-(1′H-Indole-3′-carbonyl)-thiazole-4-carboxylic acid methyl ester” (Ariagen, Inc., priority 2009, dated 2020):

Assays:
Format in all cases: in vivo
Conditions in all cases: ITE 100-200 mg/kg i.p. once daily
[1] = tested on: HCT116 (human colon cancer) xenografts; experiment: HCT116 xenograft growth inhibition
Description: (§1) All the procedures related to animal handling, care, and the treatment in the study were performed following guidelines of KeyGen Biotechn Co., Ltd. (Nanjing, China), a contract research organization we hired, based on the guidance of the Association for Assessment and Accreditation of Laboratory Animal Care (AAALAC). Animals were checked for any effects of tumor growth and drug treatment on normal behavior such as mobility, food and water consumption, body weight gain/loss (bodyweights were measured every two days), eye/hair matting, and any other abnormal effect. Death and observed clinical signs were recorded. Individual animals with a tumor volume exceeding 3,000 mm^3 or animals of a group with a mean tumor volume exceeding 2,000 mm^3 were euthanized. In addition, animals showing signs of severe distress and/or pain or losing the capability of accessing adequate food or water were humanely sacrificed.
(§2) Cell lines HCT116, Siha, MFC were cultured in DMEM medium (high glucose) supplemented with 10% fetal bovine serum (FBS), SW116 and T24 in RPMI-1640 medium with 10% FBS, M14 and A375 in DMEM medium (high glucose) with 10% calf serum (CS), SGC7901 and Ketr-3 in RPMI-1640 medium with 10% CS, and CFPAC-1 in IMDM medium with 10% FBS. All of the cells were cultured, in the presence of 100 U/ml penicillin and 100 μg/ml streptomycin, at 37° C. in an atmosphere of 5% CO2 in air. […] The cells growing in an exponential phase were harvested and counted for tumor inoculation. Cell lines 5180 and U14 were maintained in ascites (peritoneal cavity fluid) of mice and were harvested and counted for tumor inoculation. […]
(§3) Tumor volume was measured every two days in two dimensions using a caliper and the volume was calculated with a formula of: V=0.5 a×b^2, where a and b are the long and short diameter (in mm) of a tumor, respectively. […] The TGD was calculated as: TGD=T−C, where T was the time (in days) required for tumors in a drug treated group to reach a predetermined mean tumor volume and C the time (in days) in the control group to reach the same volume. […]

[2] = tested on: M14 (human skin cancer) xenografts; experiment: M14 xenograft growth inhibition
Description: as §1, §2, §3

[3] = tested on: A375 (human skin cancer) xenografts; experiment: A375 xenograft growth inhibition
Description: as §1, §2, §3

[4] = tested on: Ketr-3 (human kidney cancer) xenografts; experiment: Ketr-3 xenograft growth inhibition
Description: as §1, §2, §3

[5] = end of therapy relative to beginning

COC(=O)c1csc(C(=O)c2c[nH]c3ccccc23)n1 [ITE, 2-(1′H-indole-3′-carbonyl)-thiazole-4-carboxylic acid methyl ester]
TGD ([1]; TGD at Vol. 1,000): 3 days
TGI (%) ([1]; TGI at day 18, TGI=(1−ΔT/ΔC)×100%): 41%
Weight Loss [1, 5]: 9%
TGD ([2]; TGD at Vol. 1,000): 5 days
TGI (%) ([2]; TGI at day 26, TGI=(1−ΔT/ΔC)×100%): 48%
Weight Loss [2, 5]: 15%
TGD ([3]; TGD at Vol. 1,000): 7 days
TGI (%) ([3]; TGI at day 16, TGI=(1−ΔT/ΔC)×100%): 60%
Weight Loss [3, 5]: 18%
TGD ([4]; TGD at Vol. 500): 9 days
TGI (%) ([4]; TGI at day 28, TGI=(1−ΔT/ΔC)×100%): 74%
Weight Loss [4, 5]: 13%
